Results: paper PMC10791743, “Selective CK1α degraders exert antiproliferative activity against a broad range of human cancer cell lines” (Nature Communications, 2024)
Where “and” joins values, the source holds several entries; their conditions need not be identical. Equal entries are not always repeated.

Columns and labels:
MDR1 (P-gp) = experiment: MDCKII-MDR1 cell-based permeability assay; assay type: in vitro ADME; details: dog, MDCK-MDR1, pH 7.4
Description: (§1) page 30: ADME Methods Aqueous solubility assay: Solubility assays were conducted using a Biomek FX lab automation workstation (Beckman Coulter, Inc., Fullerton, CA) and μSOL Evolution software (pION Inc., Woburn, MA). In a 96-well microplate (Cat. No: 3363, Corning Incorporated, Salt Lake, UT), 10 μL of a 10 mM test compound stock in DMSO was added to 190 μL 1-propanol (Thermo Scientific, spectroscopy, Cat. No: 434360010, Fair Lawn, NJ) to create a reference stock plate. From this reference stock plate, 5 μL solutions were mixed with 70 μL 1-propanol and 75 μL Dulbecco's Phosphate Buffered Saline (DPBS, 1X, GibcoTM, Cat. No: 14190-144, Thermo Fisher Scientifics, Waltham, MA) to generate the reference plate (high sensitivity UV plate, Cat. No: 110286, pION Inc., Woburn, MA). In a 96-well storage plate (Cat. No: 201276-100, Agilent, Santa Clara, CA), 6 μL of a 10 mM test compound stock was added to 600 μL buffer, mixed, sealed, and incubated at room temperature for 18 hours. Following incubation, the suspension was filtered through a 96-well filter plate (PVDF, 0.2 μM, Cat. No: 110037, pION Inc., Woburn, MA). The filtrate (75 μL) was combined with 75 μL 1-propanol to create the sample plate. UV spectra of the reference and sample plates were then read, and calculations based on the area under the curve (AUC) of the UV spectra were performed using μSOL Evolution software. All compounds were tested in triplicate wells. MDCKII-MDR1 cell-based permeability assay: High-throughput […]1 permeability assay was performed in the Transwell® 0.4 μm polycarbonate membrane 96-well system with modified methods1,2, […]1 cells were maintained at 37 °C in a humidified incubator with an atmosphere of 5% CO2. The cells were cultured in 75 cm2 flasks with Eagle's Minimum Essential Medium (EMEM) containing 10% fetal bovine serum (FBS), 1% non-essential amino acids (NEAA), 100 units/mL of penicillin, and 100 μg/mL of streptomycin. The […]1 cells were seeded onto inserts at a density of 1×10^4 cells/insert separately. The medium in the wells was changed every other day, and the trans epithelial electrical resistance (TEER) value was measured page 31: using a REMS Autosampler (World Precision Instruments, Sarasota, […]1 cells were grown for 5 days to reach a consistent confluency level monitored by epithelial voltohmmeter to confirm the intactness of the confluent polarized monolayer. For transport experiments, each cultured monolayer on the 96-well plate was washed twice with a transport buffer (HBSS/25 mM […] The cell-based permeability assay was initiated by the addition of each compound solution (10 μmol/L) into inserts (apical side, A) or receivers (basolateral side, B). After incubated […] (if basal to apical permeability), and concentrations were assessed by UPLC/MS (Waters; Milford, MA). All compounds were tested in triplicates. The A→B (or B→A) apparent permeability coefficients (Papp) of each compound were calculated using the equation (3): […], where dQ/dt equals the flux of a drug across the monolayer, the parameters of A equals the surface area of total insert well, and C0 is the initial concentration of substrate in the donor compartment. The efflux ratio was determined by dividing the Papp in the B-A direction by the Papp in the A-B direction. […] NADPH regenerating agent solutions A and B (Corning GentestTM, Cat. No: 451220) were purchased from Discovery Labware (Woburn, MA). Mouse liver microsomes (CD-1, pooled, GibcoTM, Cat. No: MSMCPL) were obtained from Thermo Fisher Scientific (Fredrick, MD). Pooled human liver microsomes (mixed gender, Cat. No: E0630) were purchased from XenoTech (Lenexa, KS). Stock solutions of test compounds were prepared at 10 mM in DMSO. Sample preparation for microsomal stability was modified from Di's publications3,4. […] and 4 hours) by Labcyte Echo 650 acoustic dispenser (Beckman Coulter Life Sciences, Indianapolis, IN). All compounds were tested in triplicate per time point. […]

MDCKII-MDR1 cells = experiment: MDCKII-MDR1 cell-based permeability assay; assay type: in vitro ADME
Description: as §1

Compound | Papp A→B at 1 h, 10 μmol/L (MDR1 (P-gp); apical to basolateral, read-out: MDCK-MDR1 AB) | Papp B→A at 1 h, 10 μmol/L (MDR1 (P-gp); basolateral to apical, read-out: MDCK-MDR1 BA) | Papp (*10^6 cm/s), A2B, single replicate (MDCKII-MDR1 cells; A2B) | Papp (nm/s), A2B, single replicate (MDCKII-MDR1 cells; A2B) | AVG Papp A 2 B (MDCKII-MDR1 cells; A2B, average of 3) | Papp (*10^6 cm/s), B2A, single replicate (MDCKII-MDR1 cells; B2A) | Papp (nm/s), B2A, single replicate (MDCKII-MDR1 cells; B2A) | Efflux Ratio (MDCKII-MDR1 cells; B2A / A2B) | AVG Papp B 2 A (MDCKII-MDR1 cells; B2A, average of 3)
O=C1CCC(N2Cc3cc(Nc4noc5ccccc45)ccc3C2=O)C(=O)N1 (stereo not drawn) [SJ3149] | 27.7 ×10⁻⁶ cm/s | 36.5 ×10⁻⁶ cm/s | – | – | – | – | – | – | –
O=C1CCC(N2Cc3cc(Nc4noc5ccccc45)ccc3C2=O)C(=O)N1 (stereo not drawn) [SJ001043149-1] | – | – | 35.9761 *10^6 cm/s and 11.2244 *10^6 cm/s and 35.8135 *10^6 cm/s | 359.761 nm/s and 112.244 nm/s and 358.135 nm/s | 27.6713 ×10⁻⁶ cm/s | 44.7992 *10^6 cm/s and 31.6544 *10^6 cm/s and 32.9997 *10^6 cm/s | 447.992 nm/s and 316.544 nm/s and 329.997 nm/s | 1.318 | 36.4845 ×10⁻⁶ cm/s
